Test results taken from PubChem BioAssay (NCI).
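All cell lines were grown in 96-well plates and treated with compound for 48 hours. TGI marks complete inhibition of growth.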

Experiments:
Assay in all cases: growth of human tumour cells (NCI), 48 h
MDA-MB-435 = test system: MDA-MB-435
BT-549 breast = test system: BT-549 breast
K-562 leukemia = test system: K-562 leukemia
SR leukemia = test system: SR leukemia
HT29 colon = test system: HT29 colon
IGROV1 ovarian = test system: IGROV1 ovarian
UACC-62 melanoma = test system: UACC-62 melanoma
A498 renal = test system: A498 renal
NCI/ADR-RES ovarian = test system: NCI/ADR-RES ovarian
LOX IMVI melanoma = test system: LOX IMVI melanoma
TK-10 renal = test system: TK-10 renal
MDA-MB-231 breast = test system: MDA-MB-231 breast

SMILES | TGI (MDA-MB-435) [µM] | TGI (BT-549 breast) [µM] | TGI (K-562 leukemia) [µM] | TGI (SR leukemia) [µM] | TGI (HT29 colon) [µM] | TGI (IGROV1 ovarian) [µM] | TGI (UACC-62 melanoma) [µM] | TGI (A498 renal) [µM] | TGI (NCI/ADR-RES ovarian) [µM] | TGI (LOX IMVI melanoma) [µM] | TGI (TK-10 renal) [µM] | TGI (MDA-MB-231 breast) [µM]
COP(=O)(OC)C(O)/C=C/c1ccco1 (configuration not stated) | > 100 | > 100 | > 100 | > 100 | > 100 | > 100 | > 100 | > 100 | > 100 | > 100 | – | –
NC(CCCCN=Cc1nc(-c2ccccc2)oc1O)C(=O)O (configuration not stated) | – | – | > 100 | > 100 | > 100 | > 100 | > 100 | > 100 | – | > 100 | > 100 | –
Cc1ccc([N+](=O)[O-])cc1NC(=O)C(=O)Cc1cc(=O)oc2cc(O)ccc12 | – | – | > 100 | 94.2 | > 100 | > 100 | > 100 | > 100 | – | 97 | > 100 | –
COc1ccc(-c2oc3cc(OC)c(OC)c(OC)c3c(=O)c2OC)cc1OC | > 100 | > 100 | > 100 | – | > 100 | > 100 | > 100 | > 100 | > 100 | > 100 | > 100 | > 100
COc1cc2c(oc(=O)c3cc4ccoc4c(OC)c32)c2cccc(O)c12 | – | – | > 100 | > 100 | > 100 | > 100 | > 100 | > 100 | – | > 100 | > 100 | –
O=C1OC2c3ccccc3C(=O)C2(c2ccccc2)N1c1ccccc1 (configuration not stated) | > 200 | > 200 | > 200 | – | > 200 | > 200 | > 200 | > 200 | > 200 | > 200 | > 200 | > 200
CC(C)C(Sc1nc(-c2ccccc2)c(-c2ccccc2)[nH]1)C(=O)N/N=C/c1ccc([N+](=O)[O-])cc1 (configuration not stated) | – | – | – | 33.6 | 23.2 | 42.2 | 31.5 | 42.6 | – | 26 | > 100 | –
C=CCOC(=O)CCCCCCCCCCCCCCCOC(=O)c1c(CCC[C@@H](C)O[Si](C)(C)C(C)(C)C)nc(=O)n2c1CC[C@H]2CC1(CC/C=C\[C@H](CC)O[Si](C(C)C)(C(C)C)C(C)C)OCCO1 | > 100 | > 100 | – | – | – | – | > 100 | > 100 | > 100 | – | > 100 | 54.3
N#CC(C#N)=Cc1ccc(C=C2SC3=C(SCCS3)S2)s1 | 7.37 | 15.2 | – | – | > 100 | > 100 | > 100 | 42.7 | 42.8 | – | 68.6 | > 100
Cc1ccc(S(=O)(=O)N/N=C/c2oc(-c3ccccc3Cl)c(-c3ccccc3Cl)c2[N+](=O)[O-])cc1 | – | – | > 100 | 64.6 | > 100 | 73.3 | 65.8 | 61.8 | – | – | > 100 | –
NC1=NN(c2ccccc2)C2(c3ccncc3C(=O)O)C1C(N)=NN2c1ccccc1 (configuration not stated) | > 100 | > 100 | > 100 | – | > 100 | > 100 | > 100 | > 100 | > 100 | > 100 | – | > 100
CCN(CC)CCNc1ccc2ncn3c4c(OC)cccc4c(=O)c1c23 | 20.7 | – | 23.3 | 20.8 | 36.1 | 34.7 | 25.3 | 33.4 | – | – | 77.7 | 25.6
CC(C)CCNC(=O)c1ccc(CNC(=O)/C=C/c2csc(-c3ccccc3)n2)cc1 | > 100 | > 100 | > 100 | – | > 100 | > 100 | > 100 | > 100 | > 100 | > 100 | > 100 | > 100
O=C(Nc1ccccc1)Nn1c(-c2cccs2)nc2ccc(I)cc2c1=O | 43.3 | 39 | 10.4 | 47.9 | 84.7 | 71.7 | > 100 | – | > 100 | 49.1 | 60.6 | –
CCOP(=O)(OCC)/C(C#N)=C/c1ccc[nH]1 | – | – | > 100 | > 100 | > 100 | – | > 100 | – | – | > 100 | > 100 | –
CCCC(=O)/C=C/S/C=C/C(=O)CCC | 18.6 | – | – | – | > 100 | 47.9 | 29.8 | – | 9.05 | 6.27 | 14.5 | 23.8
CN(C)CCCNC(=O)c1cc(NC(=O)c2cc(NC(=O)[C@H]3C[C@@H]3C(=O)Nc3cc(C(=O)Nc4cc(C(=O)NCCCN(C)C)n(C)c4)n(C)c3)cn2C)cn1C | > 100 | > 100 | > 100 | > 100 | > 100 | > 100 | – | – | > 100 | > 100 | – | > 100
COc1ccc(CC2NCCc3cc(OC)c(OC)cc32)cc1 (configuration not stated) | – | – | – | > 100 | > 100 | > 100 | > 100 | – | – | > 100 | > 100 | –
O/N=C1/CCCCCC1NO (configuration not stated) | > 100 | – | – | – | > 100 | > 100 | > 100 | – | > 100 | > 100 | > 100 | > 100
CC1CC(=O)C(CC(=O)O)C1C(C(=O)C(=O)Nc1c(C#N)cccc1[N+](=O)[O-])[N+](=O)[O-] (configuration not stated) | – | – | > 100 | > 100 | > 100 | > 100 | > 100 | > 100 | – | > 100 | > 100 | –
CCN(CC)CCC(=O)N1CCc2c([nH]c3ccccc23)C1c1cccnc1 (configuration not stated) | – | – | > 100 | > 100 | > 100 | > 100 | > 100 | > 100 | – | > 100 | > 100 | –
C[N+](C)(C)Cc1c(CC#N)[nH]c2ccccc12 | – | – | > 100 | > 100 | > 100 | > 100 | > 100 | > 100 | – | > 100 | > 100 | –
